We go through 20 compounds from patent US10336762B2 (priority 2017, dated 2019).

Like-named read-outs stand apart in the source and are kept apart here. Where only a bound is given, the exact number is not on record here.

One assay deals with IRAK4 enzyme (Homo sapiens (Human), UniProt Q9NWZ3). Description: biochemical. Format: biochemical. The following applies: IRAK4 enzyme, TR-FRET, 500 μM ATP. In general terms: Time-resolved FRET reads energy transfer from a long-lived donor to a nearby acceptor.
Sequence of IRAK4 enzyme (Q9NWZ3 whole entry): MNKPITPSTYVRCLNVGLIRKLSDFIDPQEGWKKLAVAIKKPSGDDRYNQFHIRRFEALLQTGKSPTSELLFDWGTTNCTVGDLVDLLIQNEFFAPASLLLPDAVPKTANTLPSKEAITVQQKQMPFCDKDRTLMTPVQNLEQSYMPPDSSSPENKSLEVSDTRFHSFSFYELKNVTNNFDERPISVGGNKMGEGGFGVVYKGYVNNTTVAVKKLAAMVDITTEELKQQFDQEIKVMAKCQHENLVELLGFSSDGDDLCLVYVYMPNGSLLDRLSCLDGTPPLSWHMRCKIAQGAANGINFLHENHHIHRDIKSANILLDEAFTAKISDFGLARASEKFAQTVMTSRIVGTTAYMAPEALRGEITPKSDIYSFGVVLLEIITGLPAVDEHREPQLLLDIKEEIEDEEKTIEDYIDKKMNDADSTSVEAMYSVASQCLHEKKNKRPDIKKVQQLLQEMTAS
Another assay concerns TNFα. Put plainly: cells. Format: cell-based, human. The following applies: LPS-stimulated human monocytes, TNFα content, read-out: EC50 TNF.

What is called IC50 is the concentration that gives 50% inhibition. A low value points to higher potency. The term EC50 denotes the concentration that produces a half-maximal response. Compound `CC(C)(O)[C@H](F)CNC(=O)c1cnc(-c2ccc3cc(C#N)cnn23)cc1NC1CCNCC1` [Example 23, (R)-6-(3-cyanopyrrolo[1,2-b]pyridazin-7-yl)-N-(2-fluoro-3-hydroxy-3-methylbutyl)-4-(piperidin-4-ylamino)nicotinamide] registered an IC50 against IRAK4 enzyme of 3 nM. The EC50 in the assay on TNFα (Homo sapiens, Monocyte) stood at 676 nM.
In the case of `CC(C)(O)[C@H](F)CNC(=O)c1cnc(-c2ccc3cc(C#N)cnn23)cc1NC1CC2CCC(C1)N2` (stereo partly drawn) [Example 24, 4-(((1R,3s,5S)-8-azabicyclo[3.2.1]octan-3-yl)amino)-6-(3-cyanopyrrolo[1,2-b]pyridazin-7-yl)-N-((R)-2-fluoro-3-hydroxy-3-methylbutyl)nicotinamide], the IC50 against IRAK4 enzyme was determined as 2 nM. In the assay on TNFα, the EC50 turned out to be 642 nM.
`CC(C)(O)[C@H](F)CNC(=O)c1cnc(-c2ccc3cc(C#N)cnn23)cc1NC1CC2CCC(C1)N2S(C)(=O)=O` (stereo partly drawn) [Example 29, 6-(3-cyanopyrrolo[1,2-b]pyridazin-7-yl)-N-((R)-2-fluoro-3-hydroxy-3-methylbutyl)-4-(((1R,3s,5S)-8-(methylsulfonyl)-8-azabicyclo[3.2.1]octan-3-yl)amino)nicotinamide] returned an IC50 against IRAK4 enzyme of under 1 nM. In addition, the EC50 in the assay on TNFα is 100 nM.
At IRAK4 enzyme, `CC(C)(O)[C@H](F)CNC(=O)c1cnc(-c2ccc3cc(C#N)cnn23)cc1NC1C2CC1CN(S(C)(=O)=O)C2` (stereo partly drawn) [Example 30, 6-(3-cyanopyrrolo[1,2-b]pyridazin-7-yl)-N-((R)-2-fluoro-3-hydroxy-3-methyl-butyl)-4-((3-(methylsulfonyl)-3-azabicyclo[3.1.1]heptan-6-yl)amino)nicotinamide] returned an IC50 of 3 nM. For the same compound, the EC50 in the assay with TNFα (Homo sapiens, Monocyte) is 732 nM.
For the compound `CC(C)(O)[C@H](F)CNC(=O)c1cnc(-c2ccc3cc(C#N)cnn23)cc1NC1C2CCC1CN(S(C)(=O)=O)C2` (stereo partly drawn) [Example 31, 6-(3-cyanopyrrolo[1,2-b]pyridazin-7-yl)-N-((R)-2-fluoro-3-hydroxy-3-methylbutyl)-4-((3-(methylsulfonyl)-3-azabicyclo[3.2.1]octan-8-yl)amino)nicotinamide], on IRAK4 enzyme, half-maximal inhibition (IC50) was put at 16 nM. The EC50 with TNFα (Homo sapiens, Monocyte) came to 757 nM.
As for `CC(C)(O)[C@H](F)CNC(=O)c1cnc(-c2ccc3cc(C#N)cnn23)cc1N[C@H]1C[C@@H]2C[C@H]1CN2` [Example 32, 4-(((1S,4S,5S)-2-azabicyclo[2.2.1]heptan-5-yl)amino)-6-(3-cyano-pyrrolo[1,2-b]pyridazin-7-yl)-N-((R)-2-fluoro-3-hydroxy-3-methylbutyl)nicotinamide], the IC50 on IRAK4 enzyme was found to be 3 nM. Besides, the EC50 in the assay on TNFα (Homo sapiens, Monocyte) was over 10000 nM.
For `CC(C)(C)Nc1cc(-c2ccc3cc(C#N)cnn23)ncc1C(=O)NC[C@@H](F)C(C)(C)O` [Example 33, (R)-4-(tert-butylamino)-6-(3-cyanopyrrolo[1,2-b]pyridazin-7-yl)-N-(2-fluoro-3-hydroxy-3-methylbutyl)nicotinamide], in that order: under 1 nM and 29 nM.
The compound `CC(C)Nc1cc(-c2ccc3cc(C#N)cnn23)ncc1C(=O)NS(C)(=O)=O` [Example 34, 6-(3-cyanopyrrolo[1,2-b]pyridazin-7-yl)-4-(isopropylamino)-N-(methylsulfonyl) nicotinamide] yielded an IC50 against IRAK4 enzyme of 9380 nM. Moreover, the EC50 in the assay with TNFα (Homo sapiens, Monocyte) is over 10000 nM.
Take `CC(C)Nc1cc(-c2ccc3cc(C#N)cnn23)ncc1C(=O)N[C@H]1CCOC1` [Example 36, (S)-6-(3-cyanopyrrolo[1,2-b]pyridazin-7-yl)-4-(isopropylamino)-N-(tetrahydrofuran-3-yl) nicotinamide]: the IC50 at IRAK4 enzyme was 15 nM. Moreover, the EC50 with TNFα (Homo sapiens, Monocyte) was determined as 221 nM.
`CC(C)Nc1cc(-c2ccc3cc(C#N)cnn23)ncc1C(=O)N[C@@H]1CCOC1` [Example 37, (R)-6-(3-cyanopyrrolo[1,2-b]pyridazin-7-yl)-4-(isopropylamino)-N-(tetrahydrofuran-3-yl) nicotinamide] came in with an IC50 on IRAK4 enzyme of 12 nM. The EC50 in the assay on TNFα (Homo sapiens, Monocyte) came out at 283 nM.
Taken in the same sequence, the figures for `CNC(=O)c1cnc(-c2ccc3cc(C#N)cnn23)cc1NC(C)C` [Example 38, 6-(3-cyanopyrrolo[1,2-b]pyridazin-7-yl)-4-(isopropylamino)-N-methylnicotinamide] were 2 nM and 91 nM.
On to `CC(C)Nc1cc(-c2ccc3cc(C#N)cnn23)ncc1C(N)=O` [Example 39, 6-(3-cyanopyrrolo[1,2-b]pyridazin-7-yl)-4-(isopropylamino) nicotinamide], for which the IC50 at IRAK4 enzyme was 4 nM. In the assay on TNFα (Homo sapiens, Monocyte), the EC50 worked out at 507 nM.
Taken in the same sequence, the figures for `CC(C)(O)[C@H](F)CNC(=O)c1cnc(-c2ccc3cc(C#N)cnn23)cc1NC1CC(F)(F)C1` [Example 40, (R)-6-(3-cyanopyrrolo[1,2-b]pyridazin-7-yl)-4-((3,3-difluorocyclobutyl)amino)-N-(2-fluoro-3-hydroxy-3-methylbutyl)nicotinamide] were under 1 nM and 73 nM.
In turn, `CC(C)Nc1cc(-c2ccc3cc(C#N)cnn23)ncc1C(=O)NCCC(C)(C)O` [Example 41, 6-(3-cyanopyrrolo[1,2-b]pyridazin-7-yl)-N-(3-hydroxy-3-methylbutyl)-4-(isopropylamino) nicotinamide] gave an IC50 against IRAK4 enzyme of under 1 nM. For the same compound, the EC50 in the assay with TNFα (Homo sapiens, Monocyte) came to 78 nM.
The compound `CC(C)(O)[C@H](F)CNC(=O)c1cnc(-c2ccc3cc(C#N)cnn23)cc1NC1CCOCC1` [Example 42, (R)-6-(3-cyanopyrrolo[1,2-b]pyridazin-7-yl)-N-(2-fluoro-3-hydroxy-3-methylbutyl)-4-((tetrahydro-2H-pyran-4-yl)amino)nicotinamide] yielded an IC50 against IRAK4 enzyme of under 1 nM. The EC50 in the assay with TNFα (Homo sapiens, Monocyte) stood at 35 nM.
Taken in the same sequence, the figures for `CC(C)(O)[C@H](F)CNC(=O)c1cnc(-c2ccc3cc(C#N)cnn23)cc1Nc1cnn(C2COC2)c1` [Example 43, (R)-6-(3-cyanopyrrolo[1,2-b]pyridazin-7-yl)-N-(2-fluoro-3-hydroxy-3-methyl-butyl)-4-((1-(oxetan-3-yl)-1H-pyrazol-4-yl)amino) nicotinamide] were under 1 nM and 30 nM.
For `CC(C)(O)[C@H](F)CNC(=O)c1cnc(-c2ccc3cc(C#N)cnn23)cc1NN1CCOCC1` [Example 44, (R)-6-(3-cyanopyrrolo[1,2-b]pyridazin-7-yl)-N-(2-fluoro-3-hydroxy-3-methylbutyl)-4-(morpholinoamino) nicotinamide], in that order: 6630 nM and over 10000 nM.
As to `CC(C)Nc1cc(-c2ccc3cc(C#N)cnn23)ncc1C(=O)NC1CC1CO` (stereo not shown) [Example 45, 6-(3-cyanopyrrolo[1,2-b]pyridazin-7-yl)-N-(2-(hydroxymethyl)cyclopropyl)-4-(isopropylamino) nicotinamide], the IC50 against IRAK4 enzyme came to 10 nM. Moreover, in the assay with TNFα (Homo sapiens, Monocyte), the EC50 is 255 nM.
For `CC(C)(O)[C@H](F)CNC(=O)c1cnc(-c2ccc3cc(C#N)cnn23)cc1NC1CCN(S(C)(=O)=O)CC1` [Example 46, (R)-6-(3-cyanopyrrolo[1,2-b]pyridazin-7-yl)-N-(2-fluoro-3-hydroxy-3-methylbutyl)-4-((1-(methylsulfonyl)piperidin-4-yl)amino)nicotinamide], in that order: under 1 nM and 37 nM.
For the compound `Cn1cc(Nc2cc(-c3ccc4cc(C#N)cnn34)ncc2C(=O)NC[C@@H](F)C(C)(C)O)cn1` [Example 47, (R)-6-(3-cyanopyrrolo[1,2-b]pyridazin-7-yl)-N-(2-fluoro-3-hydroxy-3-methylbutyl)-4-((1-methyl-1H-pyrazol-4-yl)amino)nicotinamide], the IC50 on IRAK4 enzyme was under 1 nM. The EC50 in the assay on TNFα (Homo sapiens, Monocyte) is 37 nM.
